Several values for one entry are separate records, joined by “and”; a condition that tells them apart may be missing. Equal values may be shown once. Entries after “also recorded” stand apart in the source; their conditions may differ. Where a name gives a salt, the structure may show the parent alone. Read-outs that look alike come from different tables or passages of the source.
What was measured:
σ receptors = settings: literature; cited from earlier work
[1] = clinical trials; cited from earlier work
σ binding sites = settings: microinjections into red nucleus and substantia nigra; cited from earlier work
dopamine D-2 receptor = settings: literature; cited from earlier work
DOPAMINE D2 = molecular target: T1, DOPAMINE D2 (Cavia porcellus, UniProt H0VE83); test: Dopamine D2 receptor binding ([3H]-spiroperidol); set-up: species or system guinea-pig
T1 construct: printed as cerebral cortical tissue, [3H]spiroperidol, haloperidol blank
T1 sequence (H0VE83 entry or part of it): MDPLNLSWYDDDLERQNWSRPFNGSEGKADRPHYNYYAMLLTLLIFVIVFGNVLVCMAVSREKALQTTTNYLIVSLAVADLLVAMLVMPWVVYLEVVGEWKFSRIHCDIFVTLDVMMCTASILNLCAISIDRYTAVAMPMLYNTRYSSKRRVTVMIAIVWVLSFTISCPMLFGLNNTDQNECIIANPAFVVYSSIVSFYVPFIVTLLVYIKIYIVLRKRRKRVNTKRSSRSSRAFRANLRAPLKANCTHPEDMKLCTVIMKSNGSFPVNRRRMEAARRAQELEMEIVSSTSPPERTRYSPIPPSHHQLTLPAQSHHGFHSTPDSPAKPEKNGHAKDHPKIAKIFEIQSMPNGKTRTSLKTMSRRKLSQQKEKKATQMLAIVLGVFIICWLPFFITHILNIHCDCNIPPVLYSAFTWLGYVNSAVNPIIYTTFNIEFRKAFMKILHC
Description: (§1) This example illustrates the testing of compounds of this invention in dopamine D2, 5-HT2, muscarinic acetylcholine, α1 -adrenoceptor and β-adrenoceptor receptor assays. The receptor assay methods are described in Eur. J. Pharmacol., 155:345 (1988) except that in the β-adrenoceptor assay, [^125 I]-pindolol was used instead of [^3 H] dihydroalprenolol.
(§2) In this study, guinea-pig brains were used for binding studies. Homogenization and centrifugation procedures for preparation of brain membranes for each receptor assay were the same as described in Example 4 for the σ and PCP receptors. However, brain regions, tissue contents, and buffers may differ depending on the assay. Conditions of binding assays for various receptors were as follows:
For dopamine D2 assay, 3 H-spiroperidol (0.15 nM) was incubated in a 2 ml assay (50 mM Tris-HCl, pH 7.4) for 2 hours at 23° C. with membranes from 12 mg of cerebral cortical tissue.
(§3) Filtration and washing conditions were the same as described above for the σ receptor assay. Nonspecific binding for each receptor was defined by the inclusion of 1 μM haloperidol for dopamine D2, 1 μM haloperidol for 5-HT2, 10 μM scopolamine for muscarinic acetylcholine, 10 μM prazosin for α1 -adrenoceptor, and 0.2 μM 1-propranolol for β-adrenoceptor. Retained radioactivity was measured by liquid scintillation spectrometry except for ^125 I-pindolol which was measured by the LKB gamma counter.
(§4) Programs in Biomed. 17:107 (1983)].

MUSCARINIC ACETYLCHOLINE = assay type: binding, guinea-pig
Description: as §1, §2
For muscarinic acetylcholine assay, […]) [^3 H]-quinuclidinyl benzylate ([^3 H]-QNB) was incubated in a 2 ml assay (50 mM Tris-HCl, pH 7.4) for 2 hours at 23° C. with membranes from 2 mg of whole brain minus cerebellum.
as §3, §4

α1 -ADRENOCEPTOR = test: α1-adrenoceptor binding ([3H]-prazosin); set-up: species or system guinea-pig; settings: Table 4; IC50 and nM only stated in text; read-out: α1 -ADRENOCEPTOR
Description: as §1, §2
For α1 -adrenoceptor assay, [^3 H]-prazosin (0.4 nM) was incubated in a 1 ml assay (50 mM Tris-HCl, pH 7.4) for 1 hour at 23° C. with membranes from 1 mg of whole brain minus cerebellum.
as §3, §4

5-HT2 = 5-HT2 (Cavia porcellus, UniProt A0A286Y537); test: 5-HT2 receptor binding; set-up: species or system guinea-pig; settings: for IC50: Table 4, IC50 and nM only stated in text, read-out: 5-HT2
5-HT2, sequence (A0A286Y537 1-470): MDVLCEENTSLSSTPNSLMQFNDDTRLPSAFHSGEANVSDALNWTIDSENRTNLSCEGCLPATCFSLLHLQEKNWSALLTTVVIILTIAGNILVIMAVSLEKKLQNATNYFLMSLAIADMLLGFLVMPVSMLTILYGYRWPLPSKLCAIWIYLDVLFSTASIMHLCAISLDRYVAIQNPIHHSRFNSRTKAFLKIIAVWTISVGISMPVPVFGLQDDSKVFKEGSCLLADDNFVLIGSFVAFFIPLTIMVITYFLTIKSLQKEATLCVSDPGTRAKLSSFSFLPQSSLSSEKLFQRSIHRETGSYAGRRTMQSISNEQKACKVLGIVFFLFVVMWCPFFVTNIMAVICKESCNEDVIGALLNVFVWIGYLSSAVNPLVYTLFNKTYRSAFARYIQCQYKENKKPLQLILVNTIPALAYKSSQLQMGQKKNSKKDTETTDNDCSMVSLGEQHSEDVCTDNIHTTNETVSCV
Description: as §1, §2, §3, §4

β-ADRENOCEPTOR = test: β-adrenoceptor binding ([125I]-pindolol); set-up: species or system guinea-pig; settings: Table 4; IC50 and nM only stated in text; read-out: β-ADRENOCEPTOR
Description: as §1, §2
For β-adrenoceptor, [^125 I]-pindolol (0.05 nM) was incubated in a 1 ml assay (50 mM Tris-HCl, pH 7.4) for 1 hr at 23° C. with membranes from 1 mg of whole brain minus cerebellum.
as §3, §4

SIGMA RECEPTOR = molecular target: T2, SIGMA RECEPTOR (Cavia porcellus, UniProt Q60492); test: Sigma receptor binding assay ([3H]-d-SKF-10,047 displacement, brain membranes); set-up: species or system guinea-pig (male Hartley); settings: for SIGMA RECEPTOR SLOPE: slope of dose response curve; for potency at σ receptors (in words): hydrochloride
T2 construct: Two milliter aliquots of the brain membrane preparation, containing 1.7 mg of protein; tissue Pel-Freeze (Rogers, Arkansas); host or cells: guinea-pig brains plus cerebella, membranes
T2 sequence (Q60492 whole entry): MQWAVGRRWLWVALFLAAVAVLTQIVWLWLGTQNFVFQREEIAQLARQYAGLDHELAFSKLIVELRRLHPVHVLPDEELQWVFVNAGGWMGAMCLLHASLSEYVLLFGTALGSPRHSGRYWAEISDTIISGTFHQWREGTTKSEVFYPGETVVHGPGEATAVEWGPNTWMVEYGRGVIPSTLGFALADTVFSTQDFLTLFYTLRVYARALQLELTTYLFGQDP
Protocol: (§5) This example illustrates testing of compounds in receptor binding assays.
(§6) Frozen brains from male Hartley guinea-pigs were obtained from Pel-Freeze (Rogers, Arkansas).
(§7) The brains plus cerebella were homogenized in 10 volumes (v/w) of 0.1M, pH 7.4, ice-cold Tris-HCl buffer with a Brinkmann polytron at setting 4 for 20 seconds. The homogenates were centrifuged at 20,000×g for 20 minutes at 4° C. The pellets were suspended in 10 volumes of ice-cold water and, after sitting on ice for 10 minutes, were centrifuged 30 minutes at 20,000×g at 4° C. The resulting pellets were resuspended in the above Tris buffer in ratio 1:100 (w/v) for σ receptor assays or in 5 mM Tris-HCl having pH 7.4, for PCP receptor assays. The final suspension was homogenized with a dounce glass-glass tissue grinder Wheaton "200", at small clearance (B), with three strokes before use. Two milliter aliquots of the brain membrane preparation, containing 1.7 mg of protein, were incubated in quadruplicate for one hour at 23° C. with competing mixture of ligand and radioligand. For σ receptors, [^3 H]-d-SKF-10,047, 2 nM was used. For PCP receptors, [^3 H] TCP [^3 H]-1-[1-(2-thienyl)cyclohexyl]piperidine), 1 nM was used. The nonspecific bindings were defined by 0.1 mM d-SKF-10,047 and 0.1 mM phencyclidine respectively for σ and PCP receptors. After incubation, free ligand was separated from bound ligand by rapid filtration through Whatman GF/C filters. The filters had been soaked before use in isoamyl alcohol-saturated water to prevent nonspecific [^3 H]-d-SKF-10,047 binding to the filter. In the PCP receptor assay, the filter was soaked in 0.5% polyethylenimine to reduce the filter binding of [^3 H]-TCP. After filtration, the trapped tissue was washed three times with 4 ml aliquots of 0.1 M ice-cold Tris buffer at pH 7.4 for σ receptors and 5 mM, ice-cold Tris buffer pH 7.4 for PCP receptors. The filters were transferred to 5 ml of liquid scintillation fluid and the retained radioactivity was measured by liquid scintillation spectrometry.

PCP RECEPTOR = test: PCP receptor binding assay ([3H]-TCP displacement, brain membranes); set-up: species or system guinea-pig (male Hartley); settings: for potency at PCP receptors (in words): hydrochloride
Protocol: as §5, §6, §7, §4

[2] = literature; cited from earlier work
[3] = humans; cited from earlier work
σ receptor = settings: rat spinal cord and brain membranes; cited from earlier work
[4] = tested on: postsynaptic dopamine receptors; settings: mesolimbic area; cited from earlier work
[5] = tested on: climbing behavior in mice; settings: cited from earlier work
[6] = tested on: conditioned avoidance responses in rat; settings: cited from earlier work
[7] = Table 4, IC50 and nM only stated in text, read-out: MUSCARINIC ACETYLCHOLINE
[8] = read-out: potency (IC50) at muscarinic acetylcholine receptor
[9] = Table 4, IC50 and nM only stated in text, read-out: SIGMA
[10] = Table 1, mean ± error (n), read-out: PCP RECEPTOR IC50
[11] = Table 4, IC50 and nM only stated in text, read-out: PCP

| SMILES | affinity / binding at σ receptors (in words) (σ receptors) | potency at dopamine D-2 receptors (in words) (DOPAMINE D2) | potency at muscarinic acetylcholine receptors (in words) (MUSCARINIC ACETYLCHOLINE) | IC50 (MUSCARINIC ACETYLCHOLINE; [7]) [nM] | IC50 (MUSCARINIC ACETYLCHOLINE; [8]) [nM] | IC50 (α1 -ADRENOCEPTOR) [nM] | potency at 5-HT2 receptors (in words) (5-HT2) | IC50 (5-HT2) [nM] | IC50 (β-ADRENOCEPTOR) [nM] | SIGMA RECEPTOR SLOPE (SIGMA RECEPTOR; Table 1) | IC50 (SIGMA RECEPTOR; [9]) [nM] | potency at σ receptors (in words) (SIGMA RECEPTOR) | IC50 (SIGMA RECEPTOR; read-out: IC50 at σ receptors) | IC50 (PCP RECEPTOR; [10]) [nM] | IC50 (PCP RECEPTOR; [11]) [nM] | potency at PCP receptors (in words) (PCP RECEPTOR) | further results |
| --- | --- | --- | --- | --- | --- | --- | --- | --- | --- | --- | --- | --- | --- | --- | --- | --- | --- |
| CCN1CCC[C@H]1CNC(=O)c1c(OC)ccc(Br)c1OC [remoxipride] | potent and selective σ receptor ligands | – | – | – | – | – | – | – | – | – | – | – | – | – | – | – | clinical antipsychotic effects [1]: display clinical antipsychotic effects |
| Cc1ccccc1NC(=N)Nc1ccccc1C [DTG, 1,3-di-o-tolylguanidine] | bind to σ receptors | – | – | – | – | – | – | – | – | – | – | – | – | – | – | – | contralateral circling behavior (σ binding sites): produce vigorous contralateral circling behavior |
| O=C(CCCN1CCC(O)(c2ccc(Cl)cc2)CC1)c1ccc(F)cc1 [haloperidol, 4-[4-(p-chlorophenyl)-4-hydroxypiperidino]-4'-fluorobutyrophenone] | high affinity for the σ site; also recorded: bind to σ receptors | – | – | – | – | – | – | – | – | – | – | – | – | – | – | – | dopamine D-2 receptor antagonism (in words) (dopamine D-2 receptor): potent dopamine D-2 receptor antagonist |
| O=C(OCCN1CCCCC1)C1(c2ccccc2)CCCCC1 [Compound 3, 2-(1-Piperidino)ethyl 1-phenylcyclohexane-1-carboxylate hydrochloride] | – | moderate potencies at dopamine D-2 and 5-HT2 receptors | quite potent at muscarinic acetylcholine receptors | 46 ± 7 | 46 | 24100 | moderate potencies at dopamine D-2 and 5-HT2 receptors | 3660 | 80400 | 0.45 ± 0.04 | 26 ± 7 | increased the potency of the compound in the σ receptor assay; also recorded: very potent in the σ assay; also recorded: very high | < 100 nM | 34900 | 34900 | reduced the potency in the PCP receptor assay; also recorded: inactive in the PCP assay; also recorded: very weak or inactive in the PCP assay; also recorded: negligible; also recorded: low potency at PCP receptors | IC50 (SIGMA RECEPTOR; Table 1, mean ± error (n), read-out: SIGMA RECEPTOR IC50): 24 nM; increased potency for σ receptors (SIGMA RECEPTOR; relative to PCP (1)): more than 300 times; decreased potency for PCP receptors (PCP RECEPTOR; relative to PCP (1)): about 700 times |
| O=C(OCCN1CCCC1)C1(c2ccccc2)CCCCC1 [Compound 8, 2-(1-Pyrrolidino)ethyl 1-phenylcyclohexane-1-carboxylate hydrochloride] | – | moderate potencies at dopamine D-2 and 5-HT2 receptors | quite potent at muscarinic acetylcholine receptors | 123 ± 16 | 23 | 23200 | moderate potencies at dopamine D-2 and 5-HT2 receptors | 2930 | 85000 | 0.50 ± 0.02 | 5.1 ± 1.7 | σ receptor potency increased; also recorded: very high | 5 nM and < 100 nM | 64700 | 64700 | inactive in the PCP assay; also recorded: negligible; also recorded: low potency at PCP receptors | IC50 (PCP RECEPTOR; read-out: IC50 / potency for PCP receptors): ~64000 nM |
| c1ccc(C2(N3CCCCC3)CCCCC2)cc1 [Compound 1, 1-(1-phenylcylohexyl)piperidine, reference compound] | – | – | – | – | – | – | – | – | – | 0.95 ± 0.12 | – | – | – | 45 ± 5 | – | – | motor and behavioral effects [2]: alter gross motor activity and spatial alternation performance and to induce stereotypic movements; psychotic reactions [3]: causes psychotic reactions such as hallucinations, thought disorders and paranoid delusions similar to an acute schizophrenic episode |
| CN(C)CCOC(=O)C1(c2ccccc2)CCCCC1.Cl [Compound 19, 2-(Dimethylamino)ethyl 1-phenylcyclohexane-1-carboxylate hydrochloride] | – | moderate potencies at dopamine D-2 and 5-HT2 receptors | quite potent at muscarinic acetylcholine receptors | 750 ± 36 | 750 | 29000 | moderate potencies at dopamine D-2 and 5-HT2 receptors | 1410 | 85700 | 0.54 ± 0.02 | 9.2 ± 0.8 | σ receptor potency increased; also recorded: very potent in the σ assay; also recorded: very high | < 100 nM | 21700 | 21700 | inactive in the PCP assay; also recorded: very weak or inactive in the PCP assay; also recorded: negligible; also recorded: low potency at PCP receptors | – |
| C[C@@H]1CN(CCCn2c3ccccc3c3ccccc32)C[C@H](C)N1 [rimcazole, cis-9-[3-(3,5-dimethyl-1-piperazinyl)propyl]carbozole] | potent and selective σ receptor ligands; also recorded: high-affinity, σ-selective | – | – | – | – | – | – | – | – | – | – | – | – | – | – | – | inhibition of specific binding of NAN (σ receptor): competitively inhibit specific binding of the σ receptor ligand NAN; action at postsynaptic dopamine receptors [4]: did not exert its action at the level of postsynaptic dopamine receptors in the mesolimbic area; cataleptic state ([5]; associated with EPS): without producing the cataleptic state; climbing behavior [5]: antagonize climbing behavior in mice; clinical antipsychotic effects [1]: display clinical antipsychotic effects; conditioned avoidance responses [6]: did not influence conditioned avoidance responses in rat |

Source: patent US5086054A, “Novel arylcycloalkanepolyalkylamines” (SRI International, priority 1990, dated 1992)
